Results published in patent US9375496B2, “Halogenated compounds for cancer imaging and treatment and methods for their use” (The University of British Columbia, priority 2013, dated 2016).

Assays:
PC3 cells = assay: PC3 cell viability, alamarBlue Cell Viability Assay; format: cell-based; conditions: day 3, at concentrations that reduced LNCaP proliferation
Source text: Effects of 8d (also referred to as I-EPI-002) on androgen-dependent proliferation of LNCaP cells treated with R1881 were compared with PC3 and DU145 cell viability by alamarBlue Cell Viability Assay (FIG. 16).

estrogen receptor-α (ER) = target: T1, estrogen receptor-α (ER) (Homo sapiens, UniProt P03372); assay: ERE-luciferase reporter assay in LNCaP cells cotransfected with full-length human ERα; format: cell-based; conditions: 1.9 μM 8d, 10 nM E2 (estradiol), 24 h, LNCaP cells (FIG. 2D)
T1 construct: expression plasmids for full-length human ERα; expressed in transfected cells; host or cells: LNCaP
T1 sequence (P03372 1-595): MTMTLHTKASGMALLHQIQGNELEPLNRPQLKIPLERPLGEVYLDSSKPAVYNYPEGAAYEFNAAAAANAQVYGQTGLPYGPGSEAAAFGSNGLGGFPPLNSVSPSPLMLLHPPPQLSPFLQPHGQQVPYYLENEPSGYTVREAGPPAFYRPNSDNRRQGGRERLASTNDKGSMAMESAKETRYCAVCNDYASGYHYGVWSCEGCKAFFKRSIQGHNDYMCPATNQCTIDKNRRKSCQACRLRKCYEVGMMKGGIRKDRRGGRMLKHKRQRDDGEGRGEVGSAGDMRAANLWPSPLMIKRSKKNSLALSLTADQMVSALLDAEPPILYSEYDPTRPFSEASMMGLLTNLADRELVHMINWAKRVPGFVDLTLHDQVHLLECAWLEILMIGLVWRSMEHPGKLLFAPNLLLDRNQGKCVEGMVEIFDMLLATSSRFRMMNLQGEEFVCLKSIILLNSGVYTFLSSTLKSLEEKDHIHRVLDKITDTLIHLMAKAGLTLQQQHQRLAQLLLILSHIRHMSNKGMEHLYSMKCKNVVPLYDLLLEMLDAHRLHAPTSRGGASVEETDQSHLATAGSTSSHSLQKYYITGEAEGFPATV
Procedure: To assess specificity for the AR, parallel experiments were performed in LNCaP cells with endogenous AR and ectopic expression of other closely related human hormone receptors such as the progesterone receptor-beta (PRβ), glucocorticoid receptor (GR) and estrogen receptor-α (ER).
For 8d, 1 μg/mL=1.9 μM in FIGS. 2A-2D.

[1] = target: T2, recombinant LBD of estrogen receptor (ER) (Homo sapiens, UniProt P03372); assay: Competitive ligand-binding assay (fluorescent polarization), recombinant ER LBD; conditions: 1 nM fluorescently labeled ligand, 5 h incubation, serial dilution
T2 sequence (P03372 311-547 limits assumed): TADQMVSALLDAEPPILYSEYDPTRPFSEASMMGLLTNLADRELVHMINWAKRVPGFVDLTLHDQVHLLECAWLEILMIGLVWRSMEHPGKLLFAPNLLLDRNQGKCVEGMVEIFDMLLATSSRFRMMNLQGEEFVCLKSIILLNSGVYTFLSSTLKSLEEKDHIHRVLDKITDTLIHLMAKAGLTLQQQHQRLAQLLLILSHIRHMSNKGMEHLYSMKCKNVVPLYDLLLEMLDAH
Procedure: Competitive ligand-binding assays to detect the displacement of fluorescently labeled ligand from recombinant LBDs (ligand binding domains) of AR, PR, GR and estrogen receptor (ER) by R1881, MDV3100, Z (also referred to as EPI-002 or EPI) or 8d (also referred to as iodinated EPI) were performed. FIGS. 14A-14E display competitive ligand-binding curves to indicate whether R1881, Z, antiandrogens (enzalutamide, hydroxyflutamide, bicalutamide) or 8d can displace 1 nM fluorescently labeled cognant ligand from recombinant LBDs of steroid hormone receptors by using fluorescent polarization (mP). Serial dilution was performed for each test compound. Mixtures were incubated for 5 h before measurement of fluorescent polarization.

ERα activity (ERE-luciferase) (estrogen receptor-α (ER)): not inhibited | binding to LBD of ER (displacement of fluorescently labeled ligand) [1]: does not bind
Structure (SMILES): CC(C)(c1ccc(OC[C@H](O)CO)cc1)c1ccc(OC[C@H](O)CCl)c(I)c1 [Compound 8d, (R)-3-(4-(2-(4-((S)-3-chloro-2-hydroxypropoxy)-3-iodophenyl)propan-2-yl)phenoxy)propane-1,2-diol]
viability of PC3 cells (PC3 cells): no effect
